In brackets after ≈: the same amount, converted by molar mass. Read-outs that look alike come from different tables or passages of the source.
Legend:
Protein Kinase C = experiment: Protein kinase C inhibitory activity (method of Kikkawa et al.); assay type: biochemical, rat; conditions: for IC50 Protein Kinase C: crude enzyme partially purified from rat brain, [γ-32P]ATP, Histone Type IIS, 30° C., 3 minutes; for selective inhibitory activity on protein kinase C, as compared with Phleichrome: statement on Table 1 (protein kinase C vs protein kinase A)
Procedure: Protein kinase C inhibitory activity was measured by the method of Kikkawa, et al. [Journal of Biological Chemistry, 257, 13341 (1982)].
That is, 10 μl of a test solution containing UCN-1028A, UCN-1028C or Phleichrome was added to 250 μl of a solution containing 2.5 μmoles of magnesium acetate, 50 μg of Histone Type IIS (manufactured by Sigma Co., Ltd.), 20 μg of phosphatidyl serine, 0.8 μg of diolein, 25 nmoles of CaCl2, 5 μg of crude enzyme (partially purified from rat brain according to the method of Kikkawa, et al.) and 5 μmoles of Tris-hydrochloride buffer (H 7.5), followed by incubation at 30° C. for 3 minutes. Then, phosphorylation was initiated by addition of 1.25 nmoles of [γ-^32 P]ATP (5 to 10×10^3 cpm/nmole), followed by incubation at 30° C. for 3 minutes. The reaction was stopped by adding 25% trichloroacetic acid (TCA), and the reaction solution was filtered through a cellulose acetate membrane (pore size of 0.45 μm) (manufactured by Toyo Filter Paper Co., Ltd.). After the membrane was washed four times with 5% TCA, radioactivity remaining on the membrane was measured. As a control, the same procedure as above was repeated without addition of the test solution and radioactivity was likewise measured. A concentration of the test solution showing 50% inhibition as compared with the control was expressed as IC50.

Protein Kinase A = molecular target: T1, Protein Kinase A (Bos taurus, UniProt P00517); experiment: Protein kinase A inhibitory activity (method of Kuo et al.); assay type: biochemical, calf
T1 construct: partially purified from calf heart; from tissue; host or cells: calf heart (crude enzyme, partially purified by the method of Kuo et al.)
Procedure: Protein kinase A inhibitory activity was measured according to the method of Kuo, et al. [Biochemistry, 64, […].
That is, 10 μl of a test solution was added to 250 μl of a solution containing 5 μmoles of Tris-hydrochloride buffer (pH 6.8), 2.5 μmoles of magnesium acetate, 100 μg of Histone Type IIS (manufactured by Sigma Co., Ltd.), 0.25 nmoles of C-AMP and 200 μg of crude enzyme (partially purified from calf heart according to the method of Kuo, et al.). Subsequent procedures were conducted in a manner similar to the case of measuring protein kinase C inhibitory activity described above to determine IC^50.

MCF 7 cells = experiment: Anti-tumor activity: growth inhibition of MCF 7 cells (Neutral Red); assay type: cell-based; conditions: Homo sapiens
Procedure: (§1) MCF 7 cells (4.5×10^4 cells/ml) prepared in a medium comprising RPMI 1640 medium (manufactured by Gibco Co., Ltd.), 10% fetal calf serum, 10 μg/ml insulin and 10^-8 M estradiol (hereinafter referred to as medium A) were put into wells of a 96 well microtiter plate in the amount of 0.1 m(per each well. After culturing at 37° C for 20 hours in a carbon dioxide gas incubator, each test solution appropriately diluted with medium A (0.05 ml) was added thereto. Then, culturing was carried out at 37° C. for an hour in the carbon dioxide gas incubator, and the culture supernatant was removed. After the residue was washed once with […] (composition: 8 g/l NaCl, 0.2 g/l KCl, 1.5 g/l Na2 HPO4 and 0.2 g/l KH2 PO4), 0.1 ml of fresh medium A was added thereto, followed by culturing at 37° C. for 72 hours in the carbon dioxide gas incubator. Then, the culture supernatant was removed and 0.1 ml of a medium comprising medium A and 0.02% Neutral Red was added to the residue, followed by culturing at 37° C. for one hour in the carbon dioxide gas incubator, thereby staining the cells. After removal of the culture supernatant, the residue was washed once with physiological saline. Then, the pigment was extracted with 0.001 N hydrochloric acid/30% ethanol and absorbency at 550 nm was measured with a microplate reader. By comparing the absorbency of intact cells with that of the cells treated with a test solution having a known concentration, a concentration of the test solution which inhibited 50% of growth of the cells (IC50) was calculated.

HelaS3 cells = experiment: Anti-tumor activity: growth inhibition of HelaS3 cells (Neutral Red); assay type: cell-based; conditions: Homo sapiens
Procedure: as §1
HelaS3 cells (3×10^4 cells/ml) prepared in a medium comprising MEM medium (manufactured by Nissui Pharmaceutical Co., Ltd.) and 2 mM glutamine were put into wells of a 96 well microtiter plate in the amount of 0.1 ml per each well. In a manner similar to the case of MCF 7 cells described above, IC^50 was calculated.

[1] = MCF7, 1 hour exposure, then 72 hours culture at 37° C., Neutral Red, 550 nm, read-out: IC50 MCF 7 cells
[2] = HeLa S3, similar to MCF 7 cells, MEM medium, 2 mM glutamine, read-out: IC50 HelaS3 cells

## COc1c(CC(C)OC(=O)Oc2ccc(O)cc2)c2c3c(CC(C)OC(=O)c4ccccc4)c(OC)c(=O)c4c(O)cc(OC)c(c5c(OC)cc(O)c(c1=O)c52)c43 (stereo not shown) [UCN-1028C]
Protein Kinase C
  IC50 Protein Kinase C: 0.07 µg/mL (≈ 0.0885 µM)
  selective inhibitory activity on protein kinase C, as compared with Phleichrome: selective inhibitory activity on protein kinase C
Protein Kinase A; crude enzyme partially purified from calf heart, Histone Type IIS, C-AMP, pH 6.8, read-out: IC50 Protein Kinase A
  IC50: > 50.6 µM
MCF 7 cells; MCF7, read-out: IC50 MCF 7 cells
  IC50: 0.18 µg/mL (≈ 0.228 µM)
HelaS3 cells; HeLa S3, read-out: IC50 HelaS3 cells
  IC50: 0.19 µg/mL (≈ 0.24 µM)
Solubility; DMSO
  Solubility in DMSO: readily soluble
Solubility
  Solubility in acetone: soluble
  Solubility in alkaline water: soluble
  Solubility in chloroform: soluble
  Solubility in ethyl acetate: soluble
  Solubility in methanol: readily soluble
  Solubility in water: insoluble

## COc1c(CC(C)O)c2c3c(CC(C)O)c(OC)c(=O)c4c(O)cc(OC)c(c5c(OC)cc(O)c(c1=O)c52)c43 (stereo not shown) [Phleichrome, reference compound]
Protein Kinase C
  IC50 Protein Kinase C: 5.5 µg/mL (≈ 9.99 µM)
Protein Kinase A
  IC50: 59.9 µM
MCF 7 cells; [1]
  IC50: 0.7 µg/mL (≈ 1.27 µM)
HelaS3 cells; [2]
  IC50: 0.61 µg/mL (≈ 1.11 µM)

## COc1c(CC(C)OC(=O)c2ccccc2)c2c3c(CC(C)OC(=O)c4ccccc4)c(OC)c(=O)c4c(O)cc(OC)c(c5c(OC)cc(O)c(c1=O)c52)c43 (stereo not shown) [UCN-1028A]
Protein Kinase C
  IC50 Protein Kinase C: 0.19 µg/mL (≈ 0.25 µM)
  selective inhibitory activity on protein kinase C, as compared with Phleichrome: selective inhibitory activity on protein kinase C
Protein Kinase A
  IC50: > 52.7 µM
MCF 7 cells; [1]
  IC50: 0.21 µg/mL (≈ 0.277 µM)
HelaS3 cells; [2]
  IC50: 0.29 µg/mL (≈ 0.382 µM)
Solubility
  Solubility in acetone: soluble
  Solubility in alkaline water: soluble
  Solubility in chloroform: readily soluble
  Solubility in ethyl acetate: readily soluble
  Solubility in methanol: soluble
  Solubility in water: insoluble
Solubility; n-hexane
  Solubility in n-hexane: soluble

Reference: patent US4992570A, “UCN-1028A and UCN-1028C and process for the production thereof” (Kyowa Hakko Kogyo Co., Ltd., priority 1987, dated 1991)
